Source: publication PMC5384453, “A multi-functional PEGylated gold(III) compound: potent anti-cancer properties and self-assembly into nanostructures for drug co-delivery” (Chemical Science, 2016)

Legend:
[1] = Dynamic light scattering of nanostructures in PBS; format: physicochemical
Procedure: On the other hand, the almost neutral zeta potentials of the nanostructures of 1 and 2 validated the presence of PEG pendant in the shell of the nanostructures. The identity of gold species in the core of the nanostructures was supported by the good contrast of the core in the TEM images (Fig. 1c and S3a ^†) and energy-dispersive X-ray (EDX) spectra (Fig. 1f).
The gold content in NC1 was confirmed by EDX (Fig. 1g). […]
fetal bovine serum, ʟ-glutamine (2 mM) and penicillin/streptomycin (100 U/mL). […]
Physical measurements and instrumentation. 1H NMR spectra were recorded with a Bruker AVANCE 400 (400 MHz) or DPX-300 (300 MHz) Fourier transform NMR spectrometer at ambient temperature with tetramethylsilane (Me4Si) as an internal reference. MALDI-TOF mass spectra were recorded on a ABI4800 MALDI
TOF/TOF™ Analyzer using α-cyano-4-hydroxycinnamic acid with sodium trifluoroacetate as the matrix. Positive ion electrospray (ESI) mass spectra and ultra-performance liquid chromatography coupled quadrupole-time-of-flight mass spectrometry (UPLC-QTOF-MS) were recorded on a Waters Micromass Q-Tof
Premier quadrupole time-of-flight tandem mass spectrometer. Inductively coupled plasma mass spectra (ICP-MS) were recorded on Agilent 7500a inductively coupled plasma mass spectrometer (Agilent Technologies, CA, U.S.A.). […]

[2] = test system: NCM460 cells; assay: Time-dependent induction of apoptosis, Caspase-3/7 Green ReadyProbes fluorescence microscopy; format: cell-based, human; details: NCM460, 2 μM, Caspase-3/7 Green Reagent
Procedure: B from 20.1 to 25 min and returned to initial conditions and equilibrated for 3 minutes.
The flow rate was 0.4 mL/min and the injection volume was 2 µL. The UPLC-QTOF-MS chromatograms of 1, 3, 4 and solvent control in acetonitrile were also recorded for the interpretation of UPLC-QTOF-MS chromatograms of the cell lysate.
Cellular uptake experiments. HCT116, A2780 and A2780adr (2×10 5 cells), and MIHA and NCM460 (3.5×10 5 cells) cells were grown on 6-well plates at 37 °C under an atmosphere of 5% CO2 for 48 h. The culture medium was then removed, washed with PBS solution, and incubated with culture medium containing nanostructures of 1 […]
Au1a (2 µM; with 1 vol% DMSO). At a predetermined time, the culture medium was removed and washed with PBS solution for three times. […] An aliquot of the cell suspension was subjected to Bio-rad protein assay with a microtitre plate reader at the absorbance at 595 nm, using bovine serum albumin as the protein standard. […] The solution mixture was heated at 65 °C with shaking overnight, and the gold content was determined by ICP-MS. […]
then removed and washed with PBS solution. The cells were then incubated with culture medium containing nanostructures of 1 (2 µM) and CellEvent Caspase-3/7 Green ReadyProbes Reagent (30 µL), or Au1a (2 µM; with 1 vol% DMSO) and CellEvent Caspase-3/7 Green ReadyProbes Reagent (30 µL) at 37 °C under an atmosphere of 5% CO2. […]

[3] = test system: NCM460 cells; assay: Flow cytometric analysis of apoptosis with propidium iodide co-staining (Fig. S14, S15); details: NCM460, 2 μM
Procedure: Analysis of induction of apoptosis in HCT116 and NCM460 cells after incubation
with gold(III) complexes and FITC-annexin V staining by flow cytometry.
dishes respectively. The cells were incubated at 37 °C under an atmosphere of 5%
CO2 for 48 h. The culture medium was then removed, washed with PBS solution. The
or Au1a (2 µM; with 1 vol% DMSO) at 37 °C under an atmosphere of 5% CO2 for 24
h. All the cells were harvested, and washed with PBS solution and annexin-binding
buffer solution. The cells were collected by centrifugation at 2000 rpm for 5 min, and
re-dispersed in annexin-binding buffer solution with cell concentration of ca. 110 6
cells/mL. FITC- Annexin V (5 µL) was added to an aliquot of the cell suspension
(100 µL), and the cells were incubated at room temperature in dark for 15 min. The
solution mixture was then diluted by annexin-binding buffer solution (400 µL), kept
in ice and analyzed by flow cytometry immediately.
with gold(III) complexes by CellEvent Caspase-3/7 Green Detection Reagent
staining and flow cytometry. The procedure is similar to that using FITC-Annexin V
staining, except that the harvested cells were re-dispersed in PBS solution with 2%
BSA (w/w; 100 µL) and incubated with CellEvent Caspase-3/7 Green Detection
Reagent (2.5 µM) at 37 °C for 30 min, and subsequently stained with propidium […]

Row | Molecule | Intensity-averaged signals from dynamic light scattering (hydrodynamic diameter) [1] [nm] | incubation time at which induction of apoptosis was apparent [2] | viability (Q3 region, corrected) ([3]; 24 h) [%] | viability (Q3 region, corrected) ([3]; 36 h) [%]
1 | [Au(TPP–COO–PEG5000–OCH3)]Cl [Compound 1] | 120.8 ± 7.2 | no significant apoptosis | – | –
2 | [Au(TPP–CONH–PEG5000–OCH3)]Cl [Compound 2] | 177.1 ± 81.2 | – | – | –
3 | C1=Cc2nc1c(-c1ccccc1)c1ccc([n-]1)c(-c1ccccc1)c1nc(c(-c3ccccc3)c3ccc([n-]3)c2-c2ccccc2)C=C1.[Au+3].[Cl-] [Au1a, [Au(TPP)]Cl, reference compound] | – | 20 h | 61.14 | 56.64
